SMILES strings stand for the structures. Entries after “also recorded” stand apart in the source; their conditions may differ.

A word on the IC50: it is the midpoint of a concentration-inhibition curve.

In test [1] the target is hTRPV4 (Homo sapiens, UniProt Q9HBA0). Put plainly: Patch clamp selectivity, hTRPV4 block. Format: cell-based. As to the method: Data for TRPA1 inhibition and the selectivity of TRPA1 inhibition was obtained by this method for the compound of Formula (Ia) and included in Table 1 and Table 2. All currents were recorded in whole-cell configuration using EPC-9 and EPC-10 amplifiers and Patchmaster software (HEKA). […] The standard pipette solution consisted of 140 mM CsAsp, 10 mM EGTA, 10 mM HEPES, 2.27 mM MgCl2, 1.91 mM CaCl2, 4 mM MgATP, and 0.1-0.3 mM Na2GTP, with pH adjusted to 7.2 with CsOH. In addition, a solution containing 145 mM CsCl, 10 mM HEPES, 10 mM EGTA and 1 mM MgCl2 (pH 7.2 adjusted with CsOH) can be used. The standard bath solution contained 150 mM NaCl, 10 mM HEPES, 10 mM glucose, 4.5 mM KCl, 1 mM EGTA, 3 mM MgCl2, with pH adjusted to 7.4 with NaOH. In some instances, 2 mM CaCl2 was added in place of EGTA and the concentration of MgCl2 was reduced to 1 mM.
Data were collected either by continuous recordings at −60 mV or by applying voltage ramps from a holding potential of 0 mV every 4 s. […] Inward and outward currents were analyzed from the ramps at −80 and 80 mV, respectively. […]
Solutions were switched using a gravity-fed continuous focal perfusion system. […] Temperatures were confirmed using a thermistor (Warner Instruments, TA-29), with temperatures at the recorded cell estimated to be within +/−2° C. of those reported. […]
For orientation: The patch-clamp technique gives a direct electrical read-out from membranes.

Test [2] relates to incisional spontaneous pain (guarding). The experiment in a line: Surgical incision (Brennan) pain behavior rodent model. Format: in vivo, rat. As to the method:
The compound of Formula (Ia) is also active in rodent models of pain in vivo induced by incision of the plantar surface of the hind paw (i.e., the “Brennan Surgical Model”), as described in Example 7. […] Thirty (30) mg/kg of the compound of Formula (Ia) delivered intraperitoneally (2 doses of 15 mg/kg before and immediately after the surgery) reduces spontaneous pain for up to 2 hours after surgery (FIG. 4). The compound of Formula (Ia), the comparator compound of Formula (III) and ketoprofen were tested by the incisional pain test method reported in Brennan et al., Pain, 1996 March; 64(3):493-501 incorporated herein by reference in its entirety. Briefly, in rats under anesthesia, a 1 cm incision through skin and underlying muscle was made in the bottom of one hind paw. The incision was sutured closed and the animals allowed to regain consciousness in their home cage before being placed on a special mesh rack. The blinded observer subjectively assessed and recorded each animal's pain score every 5 minutes for 1 hour. Pain scores were assigned as follows: Score of 0=Injured paw was held flat on the rack and was bearing weight (=uninjured paw); 1=Injured paw was slightly lifted from the rack but was bearing some weight; 2=Injured paw was flat but was bearing no weight, or heel was lifted high off the rack with only toes touching. At the end of each hour, pain scores were added up and the final score recorded ([…]). In a typical study the efficacy of the drug treatment was determined by comparing the cumulative guarding scores at 1-2 and 3-4 hours following surgical injury to the cumulative guarding scores of animals that received the vehicle.

In test [3] the test system is Ascaris suum antigen-induced pulmonary resistance. Put plainly: Sheep allergic asthma model, pulmonary resistance (RL) after Ascaris suum antigen. Format: in vivo. As to the method: Compounds were tested in the sheep model of experimental asthma reported in Abraham W M, Asthma & Rhinitis, 2000: 1205-1227 incorporated herein by reference in its entirety.
The unsedated sheep were restrained in a cart in the prone position with their heads immobilized. After topical anesthesia of the nasal passages with 2% lidocaine solution, a balloon catheter was advanced through one nostril into the lower esophagus. The sheep were intubated with a cuffed endotracheal tube through the other nostril. Pleural pressure was estimated with the esophageal balloon catheter. Lateral pressure in the trachea was measured with a sidehole catheter (inner dimension, 2.5 mm) advanced through and positioned distal to the tip of the endotracheal tube. Transpulmonary pressure, the difference between tracheal and pleural pressure, was measured with a differential pressure transducer catheter system. For the measurement of pulmonary resistance (RL), the proximal end of the endotracheal tube was connected to a pneumotachograph. […]
Baseline concentration response curves to aerosol Carbachol were obtained 1 to 3 days before commencement of drug/vehicle treatment. […] Baseline values of pulmonary resistance (RL) were obtained within 30 minutes of treatment and then re-measured 30 minutes before antigen challenge. […]

Chain of hTRPV4 (Q9HBA0 whole entry): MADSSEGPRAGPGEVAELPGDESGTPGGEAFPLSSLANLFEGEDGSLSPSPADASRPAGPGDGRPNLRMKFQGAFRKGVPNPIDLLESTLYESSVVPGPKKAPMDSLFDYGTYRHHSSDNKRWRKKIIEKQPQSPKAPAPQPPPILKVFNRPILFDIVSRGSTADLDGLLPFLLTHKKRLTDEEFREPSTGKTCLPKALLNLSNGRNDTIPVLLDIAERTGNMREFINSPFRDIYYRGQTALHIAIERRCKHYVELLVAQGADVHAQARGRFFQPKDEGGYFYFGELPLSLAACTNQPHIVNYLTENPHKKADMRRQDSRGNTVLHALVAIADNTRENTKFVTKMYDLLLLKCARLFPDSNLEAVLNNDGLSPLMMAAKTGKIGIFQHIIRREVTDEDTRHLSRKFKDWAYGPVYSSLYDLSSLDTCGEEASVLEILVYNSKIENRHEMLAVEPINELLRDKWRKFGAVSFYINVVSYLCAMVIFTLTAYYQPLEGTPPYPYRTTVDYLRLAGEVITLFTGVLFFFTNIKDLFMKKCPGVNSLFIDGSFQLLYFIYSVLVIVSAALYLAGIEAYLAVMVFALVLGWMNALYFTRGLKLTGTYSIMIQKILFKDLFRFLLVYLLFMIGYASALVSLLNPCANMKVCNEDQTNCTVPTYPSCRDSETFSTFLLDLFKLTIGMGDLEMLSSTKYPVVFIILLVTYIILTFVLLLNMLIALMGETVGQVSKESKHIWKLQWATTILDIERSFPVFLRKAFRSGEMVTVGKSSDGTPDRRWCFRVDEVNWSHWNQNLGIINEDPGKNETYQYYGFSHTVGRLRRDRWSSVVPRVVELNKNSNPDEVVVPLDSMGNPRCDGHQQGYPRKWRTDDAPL

For the compound `C[C@H]1CCCN1c1ncc(-c2cccc(NC(=O)Cn3cnc4c3c(=O)n(C)c(=O)n4C)n2)cn1` [Formula (Ia)], in test [1], the “Fold Selectivity Compared to TRPA1” value is listed as approximately 170 fold. In test [1] (2 micromolar 4α-PDD, Inward (−80 mV)), this compound yielded an IC50 of 16 µM. Moreover, the “time after surgery for which spontaneous pain is reduced” value is recorded as “up to 2 hours” in test [2] (30 mg/kg intraperitoneally (2 doses of 15 mg/kg before and immediately after the surgery)); “up to 4 hours” in test [2] (60 mg/kg intraperitoneally (2 doses of 30 mg/kg before and immediately after the surgery)). Moreover, the “reduction of spontaneous pain compared with ketoprofen” value in test [2] (60 mg/kg i.p. versus ketoprofen 2 doses of 2 mg/kg intraperitoneally) is “equivalent to ketoprofen; also recorded: better than ketoprofen”. Also, the entries for the “inhibition of late phase pulmonary resistance response” value in test [3] (5 mg/kg PO daily for 4 days) and in test [3] (10 mg/kg PO daily for 4 days) were approximately 45% and “approximately 75%”, respectively.

These data come from patent US20140158116A1, “INHIBITING TRPA1 FOR THE TREATMENT OF ASTHMA” (Cubist Pharmaceuticals, Inc., priority 2012, published 2014).
